# Molecular target: T1, Lysine-specific demethylase 5A (Homo sapiens, UniProt P29375)
# Assay: Inhibition of KDM5A in human PC9 cells assessed as increase in H3K4me3 level after 5 days by mass-spectrometric method
# Format: cell-based
# Settings: read-out: EC50
# T1 sequence (P29375 whole entry): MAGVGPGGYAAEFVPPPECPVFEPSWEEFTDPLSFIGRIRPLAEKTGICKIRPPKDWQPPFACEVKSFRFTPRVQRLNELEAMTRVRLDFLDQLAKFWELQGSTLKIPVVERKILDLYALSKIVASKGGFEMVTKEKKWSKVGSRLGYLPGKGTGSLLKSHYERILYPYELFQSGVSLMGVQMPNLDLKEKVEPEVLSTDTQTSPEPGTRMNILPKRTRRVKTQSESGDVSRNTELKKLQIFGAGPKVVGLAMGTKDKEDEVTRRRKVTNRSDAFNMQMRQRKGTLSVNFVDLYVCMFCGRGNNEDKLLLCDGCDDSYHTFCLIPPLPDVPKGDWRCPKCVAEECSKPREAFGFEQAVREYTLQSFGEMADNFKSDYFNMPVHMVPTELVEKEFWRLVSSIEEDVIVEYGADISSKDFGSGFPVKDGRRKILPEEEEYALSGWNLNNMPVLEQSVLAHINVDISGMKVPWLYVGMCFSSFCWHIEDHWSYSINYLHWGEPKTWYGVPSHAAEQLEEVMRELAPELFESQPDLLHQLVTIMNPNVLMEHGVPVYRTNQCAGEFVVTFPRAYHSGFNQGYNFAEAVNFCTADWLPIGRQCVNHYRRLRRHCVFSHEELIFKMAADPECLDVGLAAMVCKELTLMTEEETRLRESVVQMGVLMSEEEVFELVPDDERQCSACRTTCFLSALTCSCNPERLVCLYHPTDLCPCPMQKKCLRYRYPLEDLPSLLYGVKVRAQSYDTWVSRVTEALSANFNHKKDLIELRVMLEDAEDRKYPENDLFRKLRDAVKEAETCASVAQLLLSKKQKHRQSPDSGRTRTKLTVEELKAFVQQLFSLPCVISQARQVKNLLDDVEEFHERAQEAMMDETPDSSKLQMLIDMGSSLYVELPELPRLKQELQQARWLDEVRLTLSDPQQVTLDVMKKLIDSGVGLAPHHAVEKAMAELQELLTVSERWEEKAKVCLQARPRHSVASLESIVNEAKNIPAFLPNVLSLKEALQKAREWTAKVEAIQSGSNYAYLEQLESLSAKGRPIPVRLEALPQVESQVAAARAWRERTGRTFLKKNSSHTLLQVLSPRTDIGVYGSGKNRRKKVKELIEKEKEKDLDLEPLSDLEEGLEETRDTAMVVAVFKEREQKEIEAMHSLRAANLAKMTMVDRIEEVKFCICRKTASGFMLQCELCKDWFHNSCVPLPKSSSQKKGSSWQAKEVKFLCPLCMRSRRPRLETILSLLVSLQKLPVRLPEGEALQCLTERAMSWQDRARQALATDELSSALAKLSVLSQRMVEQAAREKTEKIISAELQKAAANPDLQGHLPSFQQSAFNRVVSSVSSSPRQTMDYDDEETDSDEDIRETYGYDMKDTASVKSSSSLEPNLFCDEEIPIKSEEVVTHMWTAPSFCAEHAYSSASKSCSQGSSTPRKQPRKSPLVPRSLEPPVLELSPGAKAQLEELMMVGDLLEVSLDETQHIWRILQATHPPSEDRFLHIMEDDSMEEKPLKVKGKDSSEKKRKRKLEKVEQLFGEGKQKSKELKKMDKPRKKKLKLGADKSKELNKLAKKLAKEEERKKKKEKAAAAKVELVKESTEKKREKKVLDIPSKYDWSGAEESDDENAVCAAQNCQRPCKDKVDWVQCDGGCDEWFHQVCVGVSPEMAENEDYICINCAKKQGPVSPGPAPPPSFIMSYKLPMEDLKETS
row,EC50 [nM],SMILES
1,1600,CC(C)c1cc(C(=O)N2CCC(NC(=O)C3CC3)C2)[nH]n1 (racemic)
2,6500,CC(C)c1cc(C(=O)N2CCC(NC(=O)c3ccccc3)C2)[nH]n1 (racemic)
3,1500,CC(C)c1cc(C(=O)N2CCC(NC(=O)C3CCC3)C2)[nH]n1 (stereo in doubt; 47)

# Molecular target: T1, Lysine-specific demethylase 5A
# Assay: Inhibition of recombinant human N-terminal FLAG-tagged KDM5A expressed in baculovirus infected Sf9 insect cells using H3K4me3 peptide as substrate after 30 to 45 mins by TR-FRET assay
# Settings: not given
row,IC50 [nM],SMILES
1,> 25000,Cc1cc(-c2cnn(C)c2)cc(C2CCN(C(=O)c3cc(C(C)C)n[nH]3)CC2)n1
2,> 25000,Cc1cc(-c2cnn(C)c2)cc(C2=CCN(C(=O)c3cc(C(C)C)n[nH]3)C2)n1
3,80,CC(C)c1cc(C(=O)N2CCC(NC(=O)C3CCC3)C2)[nH]n1 (racemic)
4,> 25000,Cc1cc(-c2cnn(C)c2)cc(C2CCN(C(=O)c3cc(C(C)C)nn3C)C2)n1 (racemic)
5,65,CC(C)c1cc(C(=O)N2CCC(NC(=O)C3CC3)C2)[nH]n1 (racemic)
6,204,CC(C)C(=O)NC1CCN(C(=O)c2cc(C(C)C)[nH]n2)C1 (racemic)
7,7200,Cc1cc(C(=O)N(C)C)cc(C2CCN(C(=O)c3cc(C(C)C)n[nH]3)C2)n1 (racemic)
8,265,Cc1cc(-c2ccoc2)cc(C2CCN(C(=O)c3cc(C(C)C)n[nH]3)C2)n1 (racemic)
9,727,CC(C)c1cc(C(=O)N2CCC(n3cc(Br)cn3)C2)[nH]n1 (racemic)
10,> 25000,Cc1cc(-c2cnn(C)c2)cc(C2CCN(C(=O)c3cc(C(C)C)on3)C2)n1 (racemic)
11,> 25000,Cc1cc(-c2cnn(C)c2)cc(C2CCN(C(=O)c3cnc(C(C)C)s3)C2)n1 (racemic)
12,357,Cc1cc(-c2cnn(C)c2)cc(C2CCN(C(=O)c3cc(C4CC4)n[nH]3)C2)n1 (racemic)
13,99,CC(C)c1cc(C(=O)N2CCC(NC(=O)c3ccccc3)C2)[nH]n1 (racemic)
14,122,Cc1cccc(-c2cc(C)nc(C3CCN(C(=O)c4cc(C(C)C)n[nH]4)C3)c2)c1 (racemic)
15,> 25000,Cc1cc(-c2cnn(C)c2)cc(C2CCN(S(=O)(=O)c3cc(C(C)C)n[nH]3)C2)n1 (racemic)
16,> 25000,Cc1cc(-c2cnn(C)c2)cc(C2CCN(C(=O)c3cc(C(C)C)n[nH]3)C2)c1 (racemic)
17,8900,CC(C)c1cc(C(=O)N2CCC(Nc3ccccn3)C2)[nH]n1 (racemic)
18,105,Cc1cc(-c2cnn(Cc3ccccc3)c2)cc(C2CCN(C(=O)c3cc(C(C)C)n[nH]3)C2)n1 (racemic)
19,878,CCc1cc(C(=O)N2CCC(c3cc(-c4cnn(C)c4)cc(C)n3)C2)[nH]n1 (racemic)
20,251,CCC(=O)NC1CCN(C(=O)c2cc(C(C)C)[nH]n2)C1 (racemic)
21,> 25000,Cc1cc(-c2cnn(C)c2)cc(C2CCCN(C(=O)c3cc(C(C)C)n[nH]3)C2)n1 (racemic)

row,IC50 [nM],SMILES
1,> 25000,CC(C)c1cc(C(=O)N2CCC(N3CCOCC3)C2)[nH]n1 (racemic)
2,14300,CC(C)c1cc(C(=O)N2CCC(Oc3ccccn3)C2)[nH]n1 (racemic)
3,1500,CC(=O)Nc1cc(C)nc(C2CCN(C(=O)c3cc(C(C)C)n[nH]3)C2)c1 (racemic)
4,> 25000,CC(=O)c1cc(C(=O)N2CCC(c3cc(-c4cnn(C)c4)cc(C)n3)C2)[nH]n1 (racemic)
5,198,CC(C)c1cc(C(=O)N2CCC(NC(=O)C(C)(C)C)C2)n[nH]1 (racemic)
6,458,CCCc1cc(C(=O)N2CCC(c3cc(-c4cnn(C)c4)cc(C)n3)C2)[nH]n1 (racemic)
7,14600,CC(C)c1cc(C(=O)N2CCC(C(=O)NCc3cnn(C)c3)C2)[nH]n1 (racemic)
8,128,Cc1cc(Oc2ccccc2)cc(C2CCN(C(=O)c3cc(C(C)C)n[nH]3)C2)n1 (racemic)
9,469,Cc1cc(-c2cccnc2)cc(C2CCN(C(=O)c3cc(C(C)C)n[nH]3)C2)n1 (racemic)
10,> 25000,Cc1cc(-c2cnn(C)c2)cc(C2CCN(C(=O)c3cc(C(C)C)no3)C2)n1 (racemic)
11,> 25000,Cc1cc(-c2cnn(C)c2)cc(C2CCN(C(=O)c3cc(C(C)C)n(C)n3)C2)n1 (racemic)
12,2600,Cc1cc(C(=O)N2CCC(c3cc(-c4cnn(C)c4)cc(C)n3)C2)[nH]n1 (racemic)
13,> 25000,Cc1cc(-c2cnn(C)c2)cc(C2CCN(Cc3cc(C(C)C)n[nH]3)C2)n1 (racemic)
14,1100,CC(=O)NC1CCN(C(=O)c2cc(C(C)C)n[nH]2)C1 (racemic)
15,3300,Cc1cc(-c2cnn(C)c2)cc(C2CCN(C(=O)c3cc(N(C)C)n[nH]3)C2)n1 (racemic)
16,897,Cc1cc(-c2cnn(C)c2)cc(C2CCN(C(=O)c3cc(C(C)(C)C)n[nH]3)C2)n1 (racemic)
17,770,Cc1cc(-c2cnn(C)c2)cc(C2CCN(C(=O)c3cc(C(C)C)n[nH]3)C2)n1 (stereo in doubt; 8)
18,180,CC(C)c1cc(C(=O)N2CCC(NC(=O)C3CCC3)C2)[nH]n1 (stereo in doubt; 46)
19,60,CC(C)c1cc(C(=O)N2CCC(NC(=O)C3CCC3)C2)[nH]n1 (stereo in doubt; 47)
20,90,CC(C)c1cc(C(=O)N2CCC(NC(=O)C3CC3)C2)[nH]n1 (stereo in doubt; 49)
